Test system: IRF pathway in THP1-Dual™ cells, THP-1 (HAQ)
Assay: Reporter gene expression assay in THP-1 cells (THP1-Dual, IRF pathway Lucia luciferase reporter, 2′,3′-cGAMP stimulation)
Type: cell-based, human
Settings: Homo sapiens; THP1-Dual cells preincubated with compound 10 minutes, stimulation with 5 μM 2′,3′-cGAMP for 20 hr, QUANTI-Luc readout of the supernatant; read-out: THP-1 (HAQ) Activity (IC50 value range)
Experimental: Reporter Gene Expression Assay in THP-1 Cells
THP1-Dual™ cells (Invivogen) were derived from the human THP-1 monocyte cell line by stable integration of two inducible reporter constructs. As a result, THP1-Dual™ cells allow the simultaneous study of the IRF pathway, by assessing the activity of a secreted luciferase (Lucia) and the NF-κB pathway, by monitoring the activity of secreted SEAP. 5×10^4 THP1-Dual™ cells were seeded in 384-well plates in growth medium and preincubated with novel compounds for 10 minutes followed by stimulation with 5 μM 2′,3′-cGAMP. After 20 hr of stimulation the supernatant was removed and the IRF pathway reporter protein was readily measured in the cell culture supernatant using QUANTI-Luc™ (Invivogen), a luciferase detection reagent on a Spectramax i3X luminometer.

O=C(Nc1ccc2c(c1)N(Cc1ccccc1)C(=O)CS2)Nc1c[nH]c2ccc(F)cc12 [Example 1, 1-(4-benzyl-3-oxo-3,4-dihydro-2H-benzo[b][1,4]thiazin-6-yl)-3-(5-fluoro-1H-indol-3-yl)urea]
IC50: < 1 µM

O=C(Nc1ccc2c(c1)OCC(=O)N2Cc1c(F)cccc1Cl)Nc1c[nH]c2ccccc12 [Example 2, 1-(4-(2-Chloro-6-fluorobenzyl)-3-oxo-3,4-dihydro-2H-benzo[b][1,4]oxazin-7-yl)-3-(1H-indol-3-yl)urea]
IC50: < 1 µM

O=C(Nc1ccc2c(c1)OCC(=O)N2Cc1ccccc1)Nc1c[nH]c2ccccc12 [Example 3, 1-(4-benzyl-3-oxo-3,4-dihydro-2H-benzo[b][1,4]oxazin-7-yl)-3-(1H-indol-3-yl)urea]
IC50: < 1 µM

O=C(Nc1ccc2c(c1)N(Cc1ccccc1)C(=O)CO2)Nc1c[nH]c2ccccc12 [Example 4, 1-(4-benzyl-3-oxo-3,4-dihydro-2H-benzo[b][1,4]oxazin-6-yl)-3-(1H-indol-3-yl)urea]
IC50: < 1 µM

O=C(Nc1ccc2c(c1)N(Cc1ccccc1)C(=O)CS2)Nc1c[nH]c2ncc(Cl)cc12 [Example 5, 1-(4-benzyl-3-oxo-3,4-dihydro-2H-benzo[b][1,4]thiazin-6-yl)-3-(5-chloro-1H-pyrrolo[2,3-b]pyridin-3-yl)urea]
IC50: < 1 µM

O=C(Nc1ccc2c(c1)N(Cc1ccccc1)C(=O)CS2)Nc1c[nH]c2ncc(Br)cc12 [Example 6, 1-(4-benzyl-3-oxo-3,4-dihydro-2H-benzo[b][1,4]thiazin-6-yl)-3-(5-bromo-1H-pyrrolo[2,3-b]pyridin-3-yl)urea]
IC50: < 1 µM

O=C(Nc1ccc2c(c1)SCC(=O)N2Cc1ccccc1)Nc1c[nH]c2ccccc12 [Example 7, 1-(4-benzyl-3-oxo-3,4-dihydro-2H-benzo[b][1,4]thiazin-7-yl)-3-(1H-indol-3-yl)urea]
IC50: < 1 µM

O=C(Nc1ccc2c(c1)N(Cc1c(F)cccc1Cl)C(=O)CO2)Nc1c[nH]c2ccccc12 [Example 8, 1-(4-(2-chloro-6-fluorobenzyl)-3-oxo-3,4-dihydro-2H-benzo[b][1,4]oxazin-6-yl)-3-(1H-indol-3-yl)urea]
IC50: < 1 µM

Cc1[nH]c2ccccc2c1NC(=O)Nc1ccc2c(c1)N(Cc1ccccc1)C(=O)CS2 [Example 9, 1-(4-benzyl-3-oxo-3,4-dihydro-2H-benzo[b][1,4]thiazin-6-yl)-3-(2-methyl-1H-indol-3-yl)urea]
IC50: 1 to 10 µM

O=C(Nc1ccc2c(c1)N(Cc1ccccc1)C(=O)CS2)Nc1c[nH]c2ccc(Cl)cc12 [Example 10, 1-(4-benzyl-3-oxo-3,4-dihydro-2H-benzo[b][1,4]thiazin-6-yl)-3-(5-chloro-1H-indol-3-yl)urea]
IC50: < 1 µM

O=C(Nc1ccc2c(c1)N(Cc1c(F)cccc1Cl)C(=O)CS2)Nc1c[nH]c2ccccc12 [Example 11, 1-(4-(2-chloro-6-fluorobenzyl)-3-oxo-3,4-dihydro-2H-benzo[b][1,4]thiazin-6-yl)-3-(1H-indol-3-yl)urea]
IC50: < 1 µM

O=C(Nc1ccc2c(c1)SCC(=O)N2Cc1c(F)cccc1Cl)Nc1c[nH]c2ccccc12 [Example 12, 1-(4-(2-chloro-6-fluorobenzyl)-3-oxo-3,4-dihydro-2H-benzo[b][1,4]thiazin-7-yl)-3-(1H-indol-3-yl)urea]
IC50: < 1 µM

O=C(Nc1ccc2c(c1)N(Cc1ccccc1)C(=O)CS2)Nc1c[nH]c2ncccc12 [Example 13, 1-(4-benzyl-3-oxo-3,4-dihydro-2H-benzo[b][1,4]thiazin-6-yl)-3-(1H-pyrrolo[2,3-b]pyridin-3-yl)urea]
IC50: < 1 µM

O=C(Nc1ccc2c(c1)N(Cc1ccccc1)C(=O)CS2)Nc1c[nH]c2ccncc12 [Example 14, 1-(4-benzyl-3-oxo-3,4-dihydro-2H-benzo[b][1,4]thiazin-6-yl)-3-(1H-pyrrolo[3,2-c]pyridin-3-yl)urea]
IC50: 1 to 10 µM

O=C(Nc1ccc2c(c1)N(Cc1ccccc1)C(=O)CS2)Nc1c[nH]c2cnccc12 [Example 15, 1-(4-benzyl-3-oxo-3,4-dihydro-2H-benzo[b][1,4]thiazin-6-yl)-3-(1H-pyrrolo[2,3-c]pyridin-3-yl)urea]
IC50: < 1 µM

CN1C(=O)CSc2ccc(NC(=O)Nc3c[nH]c4ccccc34)cc21 [Example 16, 1-(1H-indol-3-yl)-3-(4-methyl-3-oxo-3,4-dihydro-2H-benzo[b][1,4]thiazin-6-yl)urea]
IC50: < 1 µM

O=C(Nc1ccc2c(c1)N(Cc1ccccc1)C(=O)CS2)Nc1c[nH]c2cccnc12 [Example 17, 1-(4-benzyl-3-oxo-3,4-dihydro-2H-benzo[b][1,4]thiazin-6-yl)-3-(1H-pyrrolo[3,2-b]pyridin-3-yl)urea]
IC50: 1 to 10 µM

O=C(Nc1ccc2c(c1)N(Cc1cc(F)cc(F)c1)C(=O)CS2)Nc1c[nH]c2ccccc12 [Example 18, 1-(4-(3,5-difluorobenzyl)-3-oxo-3,4-dihydro-2H-benzo[b][1,4]thiazin-6-yl)-3-(1H-indol-3-yl)urea]
IC50: < 1 µM

O=C(Nc1ccc2c(c1)N(Cc1ccccn1)C(=O)CS2)Nc1c[nH]c2ccccc12 [Example 19, 1-(1H-indol-3-yl)-3-(3-oxo-4-(pyridin-2-ylmethyl)-3,4-dihydro-2H-benzo[b][1,4]thiazin-6-yl)urea]
IC50: 1 to 10 µM

O=C(Nc1ccc2c(c1)N(Cc1ccncc1)C(=O)CS2)Nc1c[nH]c2ccccc12 [Example 20, 1-(1H-indol-3-yl)-3-(3-oxo-4-(pyridin-4-ylmethyl)-3,4-dihydro-2H-benzo[b][1,4]thiazin-6-yl)urea]
IC50: 1 to 10 µM

NC(=O)c1cccc(CN2C(=O)CSc3ccc(NC(=O)Nc4c[nH]c5ccccc45)cc32)c1 [Example 21, 3-((6-(3-(1H-indol-3-yl)ureido)-3-oxo-2,3-dihydro-4H-benzo[b][1,4]thiazin-4-yl)methyl)benzamide]
IC50: 1 to 10 µM

NC(=O)c1ccccc1CN1C(=O)CSc2ccc(NC(=O)Nc3c[nH]c4ccccc34)cc21 [Example 22, 2-((6-(3-(1H-indol-3-yl)ureido)-3-oxo-2,3-dihydro-4H-benzo[b][1,4]thiazin-4-yl)methyl)benzamide]
IC50: 1 to 10 µM

NC(=O)c1ccc(CN2C(=O)CSc3ccc(NC(=O)Nc4c[nH]c5ccccc45)cc32)cc1 [Example 23, 4-((6-(3-(1H-indol-3-yl)ureido)-3-oxo-2,3-dihydro-4H-benzo[b][1,4]thiazin-4-yl)methyl)benzamide]
IC50: 1 to 10 µM

O=C(Nc1ccc2c(c1)N(Cc1cccnc1)C(=O)CS2)Nc1c[nH]c2ccccc12 [Example 24, 1-(1H-indol-3-yl)-3-(3-oxo-4-(pyridin-3-ylmethyl)-3,4-dihydro-2H-benzo[b][1,4]thiazin-6-yl)urea]
IC50: 1 to 10 µM

COc1ccc(F)c(CN2C(=O)CSc3ccc(NC(=O)Nc4c[nH]c5ccccc45)cc32)c1Cl [Example 25, 1-(4-(2-chloro-6-fluoro-3-methoxybenzyl)-3-oxo-3,4-dihydro-2H-benzo[b][1,4]thiazin-6-yl)-3-(1H-indol-3-yl)urea]
IC50: < 1 µM

O=C(Nc1ccc2c(c1)N(Cc1noc3ccccc13)C(=O)CS2)Nc1c[nH]c2ccccc12 [Example 26, 1-(4-(benzo[d]isoxazol-3-ylmethyl)-3-oxo-3,4-dihydro-2H-benzo[b][1,4]thiazin-6-yl)-3-(1H-indol-3-yl)urea]
IC50: < 1 µM

CC1Sc2ccc(NC(=O)Nc3c[nH]c4ccccc34)cc2N(Cc2c(F)cccc2Cl)C1=O (stereo not shown) [Example 27, 1-(4-(2-chloro-6-fluorobenzyl)-2-methyl-3-oxo-3,4-dihydro-2H-benzo[b][1,4]thiazin-6-yl)-3-(1H-indol-3-yl)urea]
IC50: < 1 µM

O=C(Nc1ccc2c(c1)N(Cc1c(F)cccc1Cl)C(=O)CS2)Nc1c[nH]c2ccc(Cl)cc12 [Example 28, 1-(5-chloro-1H-indol-3-yl)-3-(4-(2-chloro-6-fluorobenzyl)-3-oxo-3,4-dihydro-2H-benzo[b][1,4]thiazin-6-yl)urea]
IC50: 1 to 10 µM

CC1Sc2ccc(NC(=O)Nc3c[nH]c4ccccc34)cc2N(Cc2ccccc2)C1=O (stereo not shown) [Example 29, 1-(4-benzyl-2-methyl-3-oxo-3,4-dihydro-2H-benzo[b][1,4]thiazin-6-yl)-3-(1H-indol-3-yl)urea]
IC50: < 1 µM

CC1Sc2cc(NC(=O)Nc3c[nH]c4ccccc34)ccc2N(Cc2ccccc2)C1=O (stereo not shown) [Example 30, 1-(4-benzyl-2-methyl-3-oxo-3,4-dihydro-2H-benzo[b][1,4]thiazin-7-yl)-3-(1H-indol-3-yl)urea]
IC50: < 1 µM

CC1Sc2ccc(NC(=O)Nc3c[nH]c4ccc(F)cc34)cc2N(Cc2cc(F)cc(F)c2)C1=O (stereo not shown) [Example 31, 1-(4-(3,5-difluorobenzyl)-2-methyl-3-oxo-3,4-dihydro-2H-benzo[b][1,4]thiazin-6-yl)-3-(5-fluoro-1H-indol-3-yl)urea]
IC50: < 1 µM

O=C(Nc1ccc2c(c1)N(Cc1cc(F)cc(F)c1)C(=O)CS2)Nc1c[nH]c2ccc(F)cc12 [Example 32, 1-(4-(3,5-difluorobenzyl)-3-oxo-3,4-dihydro-2H-benzo[b][1,4]thiazin-6-yl)-3-(5-fluoro-1H-indol-3-yl)urea]
IC50: < 1 µM

CC1Sc2ccc(NC(=O)Nc3c[nH]c4ccccc34)cc2N(Cc2cc(F)cc(F)c2)C1=O (stereo not shown) [Example 33, 1-(4-(3,5-difluorobenzyl)-2-methyl-3-oxo-3,4-dihydro-2H-benzo[b][1,4]thiazin-6-yl)-3-(1H-indol-3-yl)urea]
IC50: < 1 µM

O=C(Nc1ccc2c(c1)N(Cc1c(F)ccc(O)c1Cl)C(=O)CS2)Nc1c[nH]c2ccccc12 [Example 34, 1-(4-(2-chloro-6-fluoro-3-hydroxybenzyl)-3-oxo-3,4-dihydro-2H-benzo[b][1,4]thiazin-6-yl)-3-(1H-indol-3-yl)urea]
IC50: < 1 µM

From US20260159511A1, “SMALL MOLECULE STING ANTAGONISTS” (CURADEV PHARMA PVT. LTD., priority 2021, published 2026)
